Laboratory results: patent publication US20260053811A1, “METHODS OF TREATING HYPERTENSION IN OBESE SUBJECTS” (Mineralys Therapeutics, Inc., priority 2022, published 2026)

Experiments:
Format in all cases: in vivo, human
hypertensive subjects = test: Estimated glomerular filtration rate (eGFR, CKD-EPI equation); conditions: for Estimated Glomerular Filtration Rate, Mean (SD) Change from Baseline / Estimated Glomerular Filtration Rate, Mean (SD) Observed: Part 1; for Estimated Glomerular Filtration Rate, Mean Change from Baseline / Estimated Glomerular Filtration Rate, Mean Observed: Part 2; for Change in estimated glomerular filtration rate (eGFR): across dosing cohorts
Description: In contrast, mean eGFR for the Placebo group was relatively stable throughout treatment, reaching a mean maximal reduction of −2.80 mL/min/1.73 m^2 at Week 2 (range: −0.83 mL/min/1.73 m^2 to −2.80 mL/min/1.73 m^2). Estimated glomerular filtration rate was estimated using the CKD-EPI equation.

serum aldosterone = test: Serum aldosterone (pharmacodynamic response); conditions: for Reduction in median serum aldosterone compared to baseline: week 4, low renin subjects (Part-1); for Aldosterone levels, change relative to baseline, range across active arms / Aldosterone, Mean (SD) Observed / Aldosterone, Mean (SD) Percent Change from Baseline: Part 1; for Aldosterone, Mean Observed / Aldosterone, Mean Percent Change from Baseline: Part 2
Text: (§1) PK/PD Analysis Set includes all subjects in the SAF who have sufficient data available for the analysis of pharmacokinetic and pharmacodynamic measurements. In the analyses based on PKPD, subjects will be analyzed according to the actual treatment received.

11-deoxycorticosterone = test: Serum 11-deoxycorticosterone (pharmacodynamic response); conditions: for 11-Deoxycorticosterone, Mean (SD) Observed / 11-Deoxycorticosterone, Mean (SD) Percent Change from Baseline: Part 1; for 11-Deoxycorticosterone, Mean Observed / 11-Deoxycorticosterone, Mean Percent Change from Baseline: Part 2
Text: as §1

CC(=O)N[C@H]1CC[C@H](NC(=O)CN2CCN(c3nncc(-c4ccc(C)cc4)n3)CC2)CC1 [Compound A HBr]
Estimated Glomerular Filtration Rate, Mean (SD) Change from Baseline (hypertensive subjects; Week 8, 50 mg QD): −4.64 (9.87) mL/min/1.73 m^2 | Estimated Glomerular Filtration Rate, Mean (SD) Observed (hypertensive subjects; Week 8, 50 mg QD): 72.54 (16.89) mL/min/1.73 m^2 | Estimated Glomerular Filtration Rate, Mean (SD) Change from Baseline (hypertensive subjects; Week 8, 100 mg QD): −7.83 (11.62) mL/min/1.73 m^2 | Estimated Glomerular Filtration Rate, Mean (SD) Observed (hypertensive subjects; Week 8, 100 mg QD): 68.42 (20.14) mL/min/1.73 m^2 | Estimated Glomerular Filtration Rate, Mean Change from Baseline (hypertensive subjects; Week 1, 100 mg QD): −9.65 mL/min/1.73 m^2 | Estimated Glomerular Filtration Rate, Mean Observed (hypertensive subjects; Week 1, 100 mg QD): 70.73 mL/min/1.73 m^2 | Estimated Glomerular Filtration Rate, Mean Change from Baseline (hypertensive subjects; Week 2, 100 mg QD): −8.05 mL/min/1.73 m^2 | Estimated Glomerular Filtration Rate, Mean Observed (hypertensive subjects; Week 2, 100 mg QD): 72.07 mL/min/1.73 m^2 | Estimated Glomerular Filtration Rate, Mean Change from Baseline (hypertensive subjects; Week 3, 100 mg QD): −7.33 mL/min/1.73 m^2 | Estimated Glomerular Filtration Rate, Mean Observed (hypertensive subjects; Week 3, 100 mg QD): 72.69 mL/min/1.73 m^2 | Estimated Glomerular Filtration Rate, Mean Change from Baseline (hypertensive subjects; Week 4, 100 mg QD): −7.20 mL/min/1.73 m^2 | Estimated Glomerular Filtration Rate, Mean Observed (hypertensive subjects; Week 4, 100 mg QD): 72.92 mL/min/1.73 m^2 | Estimated Glomerular Filtration Rate, Mean Change from Baseline (hypertensive subjects; Week 5, 100 mg QD): −8.69 mL/min/1.73 m^2 | Estimated Glomerular Filtration Rate, Mean Observed (hypertensive subjects; Week 5, 100 mg QD): 71.23 mL/min/1.73 m^2 | Estimated Glomerular Filtration Rate, Mean Change from Baseline (hypertensive subjects; Week 6, 100 mg QD): −10.87 mL/min/1.73 m^2 | Estimated Glomerular Filtration Rate, Mean Observed (hypertensive subjects; Week 6, 100 mg QD): 68.04 mL/min/1.73 m^2 | Estimated Glomerular Filtration Rate, Mean Change from Baseline (hypertensive subjects; Week 7, 100 mg QD): −7.34 mL/min/1.73 m^2 | Estimated Glomerular Filtration Rate, Mean Observed (hypertensive subjects; Week 7, 100 mg QD): 72.82 mL/min/1.73 m^2 | Estimated Glomerular Filtration Rate, Mean Change from Baseline (hypertensive subjects; Week 8, 100 mg QD): −7.95 mL/min/1.73 m^2 | Estimated Glomerular Filtration Rate, Mean Observed (hypertensive subjects; Week 8, 100 mg QD): 72.43 mL/min/1.73 m^2 | Change in estimated glomerular filtration rate (eGFR) (hypertensive subjects): dose-dependent and reversible reduction in eGFR | Change in estimated glomerular filtration rate (eGFR) (hypertensive subjects; listed as lorundrostat): dose-dependent and reversible reduction in eGFR | Reduction in median serum aldosterone compared to baseline (serum aldosterone; 25 mg BID): 9.6% | Reduction in median serum aldosterone compared to baseline (serum aldosterone; 50 mg QD): 65.2% | Reduction in median serum aldosterone compared to baseline (serum aldosterone; 100 mg QD): 70.0% | Aldosterone levels, change relative to baseline, range across active arms (serum aldosterone; Week 4): −40.1% to 7.4% | Aldosterone levels, change relative to baseline, range across active arms (serum aldosterone; Week 12): −26.6% to 15.9% | Aldosterone, Mean (SD) Observed (serum aldosterone; Wk 4, 12.5 mg BID): 4.447 (3.681) ng/dL | Aldosterone, Mean (SD) Percent Change from Baseline (serum aldosterone; Wk 4, 12.5 mg BID): −37.86 (35.66) % | Aldosterone, Mean (SD) Observed (serum aldosterone; Wk 4, 12.5 mg QD): 6.132 (4.606) ng/dL | Aldosterone, Mean (SD) Percent Change from Baseline (serum aldosterone; Wk 4, 12.5 mg QD): 7.39 (91.87) % | Aldosterone, Mean (SD) Observed (serum aldosterone; Wk 4, 25 mg BID): 3.192 (3.274) ng/dL | Aldosterone, Mean (SD) Percent Change from Baseline (serum aldosterone; Wk 4, 25 mg BID): 1.66 (233.60) % | Aldosterone, Mean (SD) Observed (serum aldosterone; Wk 4, 50 mg QD): 3.923 (5.283) ng/dL | Aldosterone, Mean (SD) Percent Change from Baseline (serum aldosterone; Wk 4, 50 mg QD): −40.06 (70.25) % | Aldosterone, Mean (SD) Observed (serum aldosterone; Wk 4, 100 mg QD): 4.000 (4.252) ng/dL | Aldosterone, Mean (SD) Percent Change from Baseline (serum aldosterone; Wk 4, 100 mg QD): −32.18 (75.13) % | Aldosterone, Mean (SD) Observed (serum aldosterone; Wk 12, 12.5 mg BID): 6.765 (4.085) ng/dL | Aldosterone, Mean (SD) Percent Change from Baseline (serum aldosterone; Wk 12, 12.5 mg BID): 1.97 (66.85) % | Aldosterone, Mean (SD) Observed (serum aldosterone; Wk 12, 12.5 mg QD): 6.833 (4.743) ng/dL | Aldosterone, Mean (SD) Percent Change from Baseline (serum aldosterone; Wk 12, 12.5 mg QD): 15.91 (67.68) % | Aldosterone, Mean (SD) Observed (serum aldosterone; Wk 12, 25 mg BID): 4.983 (3.432) ng/dL | Aldosterone, Mean (SD) Percent Change from Baseline (serum aldosterone; Wk 12, 25 mg BID): −10.10 (66.83) % | Aldosterone, Mean (SD) Observed (serum aldosterone; Wk 12, 50 mg QD): 5.385 (4.087) ng/dL | Aldosterone, Mean (SD) Percent Change from Baseline (serum aldosterone; Wk 12, 50 mg QD): −3.75 (56.02) % | Aldosterone, Mean (SD) Observed (serum aldosterone; Wk 12, 100 mg QD): 4.563 (2.868) ng/dL | Aldosterone, Mean (SD) Percent Change from Baseline (serum aldosterone; Wk 12, 100 mg QD): −26.56 (37.55) % | Aldosterone, Mean Observed (serum aldosterone; Wk 4, 100 mg QD): 5.060 ng/dL | Aldosterone, Mean Percent Change from Baseline (serum aldosterone; Wk 4, 100 mg QD): −6.05% | Aldosterone, Mean Observed (serum aldosterone; Wk 10, 100 mg QD): 4.929 ng/dL | Aldosterone, Mean Percent Change from Baseline (serum aldosterone; Wk 10, 100 mg QD): −4.06% | Serum aldosterone levels, pharmacodynamic response (serum aldosterone; across doses): dose-dependent reduction in serum aldosterone levels | 11-Deoxycorticosterone, Mean (SD) Observed (11-deoxycorticosterone; Wk 4, 12.5 mg BID): 9.0 (3.0) ng/dL | 11-Deoxycorticosterone, Mean (SD) Percent Change from Baseline (11-deoxycorticosterone; Wk 4, 12.5 mg BID): 12.50 (37.50) % | 11-Deoxycorticosterone, Mean (SD) Observed (11-deoxycorticosterone; Wk 4, 12.5 mg QD): 11.1 (5.5) ng/dL | 11-Deoxycorticosterone, Mean (SD) Percent Change from Baseline (11-deoxycorticosterone; Wk 4, 12.5 mg QD): 31.41 (60.95) % | 11-Deoxycorticosterone, Mean (SD) Observed (11-deoxycorticosterone; Wk 4, 25 mg BID): 13.7 (13.9) ng/dL | 11-Deoxycorticosterone, Mean (SD) Percent Change from Baseline (11-deoxycorticosterone; Wk 4, 25 mg BID): 71.63 (173.69) % | 11-Deoxycorticosterone, Mean (SD) Observed (11-deoxycorticosterone; Wk 4, 50 mg QD): 8.0 (0.0) ng/dL | 11-Deoxycorticosterone, Mean (SD) Percent Change from Baseline (11-deoxycorticosterone; Wk 4, 50 mg QD): −2.66 (9.61) % | 11-Deoxycorticosterone, Mean (SD) Observed (11-deoxycorticosterone; Wk 4, 100 mg QD): 9.5 (5.2) ng/dL | 11-Deoxycorticosterone, Mean (SD) Percent Change from Baseline (11-deoxycorticosterone; Wk 4, 100 mg QD): 16.18 (66.37) % | 11-Deoxycorticosterone, Mean (SD) Observed (11-deoxycorticosterone; Wk 12, 12.5 mg BID): 8.0 (0.0) ng/dL | 11-Deoxycorticosterone, Mean (SD) Percent Change from Baseline (11-deoxycorticosterone; Wk 12, 12.5 mg BID): 0.00 (0.00) % | 11-Deoxycorticosterone, Mean (SD) Observed (11-deoxycorticosterone; Wk 12, 12.5 mg QD): 9.2 (4.9) ng/dL | 11-Deoxycorticosterone, Mean (SD) Percent Change from Baseline (11-deoxycorticosterone; Wk 12, 12.5 mg QD): 11.96 (62.37) % | 11-Deoxycorticosterone, Mean (SD) Observed (11-deoxycorticosterone; Wk 12, 25 mg BID): 8.0 (0.0) ng/dL | 11-Deoxycorticosterone, Mean (SD) Percent Change from Baseline (11-deoxycorticosterone; Wk 12, 25 mg BID): 0.00 (0.00) % | 11-Deoxycorticosterone, Mean (SD) Observed (11-deoxycorticosterone; Wk 12, 50 mg QD): 8.5 (2.4) ng/dL | 11-Deoxycorticosterone, Mean (SD) Percent Change from Baseline (11-deoxycorticosterone; Wk 12, 50 mg QD): 3.01 (31.53) % | 11-Deoxycorticosterone, Mean (SD) Observed (11-deoxycorticosterone; Wk 12, 100 mg QD): 8.4 (2.0) ng/dL | 11-Deoxycorticosterone, Mean (SD) Percent Change from Baseline (11-deoxycorticosterone; Wk 12, 100 mg QD): 2.80 (28.58) % | 11-deoxycorticosterone compared with placebo (11-deoxycorticosterone; Part 1 active treatment arms, Week 4): Transient increases | 11-Deoxycorticosterone, Mean Observed (11-deoxycorticosterone; Wk 4, 100 mg QD): 10.28 ng/dL | 11-Deoxycorticosterone, Mean Percent Change from Baseline (11-deoxycorticosterone; Wk 4, 100 mg QD): 6.02% | 11-Deoxycorticosterone, Mean Observed (11-deoxycorticosterone; Wk 10, 100 mg QD): 8.00 ng/dL | 11-Deoxycorticosterone, Mean Percent Change from Baseline (11-deoxycorticosterone; Wk 10, 100 mg QD): −8.78% | 11-deoxycorticosterone levels (11-deoxycorticosterone; summary of trial): unaffected
